Test results from the NIST ThermoML archive (doi:10.1021/je400250u).

Experiments:
[1] = refractive index (Na D-line) (dimensionless); xn = mol fraction of the nth substance listed; conditions: 100 kPa, Liquid, Standard Abbe refractometry
[2] = xn = mol fraction of the nth substance listed; conditions: 100 kPa, Liquid; for viscosity: Capillary tube (Ostwald / Ubbelohde) method; for mass density: Vibrating tube method

C1CC[C@H]2CCCC[C@H]2C1 [cis-decahydronaphthalene] + CCCCCCCCC
Conditions	mass density, [2] [kg/m3]	refractive index, [1]	viscosity, [2] [mPa·s]
293.15 K, x1 = 0.1031	734.59	–	0.788
293.15 K, x1 = 0.2033	751.1	–	0.899
293.15 K, x1 = 0.2973	766.96	–	1.02
293.15 K, x1 = 0.3997	784.54	–	1.139
293.15 K, x1 = 0.4978	801.87	–	1.268
293.15 K, x1 = 0.6044	821.02	–	1.507
293.15 K, x1 = 0.6961	837.96	–	1.769
293.15 K, x1 = 0.8014	857.86	–	2.111
293.15 K, x1 = 0.8976	876.48	–	2.526
293.15 K, x1 = 1	896.85	–	3.355
298.15 K, x1 = 0.1031	730.75	1.4095	0.737
298.15 K, x1 = 0.2033	747.26	1.4168	0.826
298.15 K, x1 = 0.2973	763.14	1.4232	0.956
298.15 K, x1 = 0.3997	780.74	1.4311	1.064
298.15 K, x1 = 0.4978	798.1	1.438	1.171
298.15 K, x1 = 0.6044	817.23	1.4459	1.385
298.15 K, x1 = 0.6961	834.18	1.4533	1.624
298.15 K, x1 = 0.8014	854.08	1.4613	1.919
298.15 K, x1 = 0.8976	872.72	1.4688	2.288
298.15 K, x1 = 1	893.06	1.4776	3.011
303.15 K, x1 = 0.1031	726.86	–	0.695
303.15 K, x1 = 0.2033	743.4	–	0.786
303.15 K, x1 = 0.2973	759.3	–	0.883
303.15 K, x1 = 0.3997	776.91	–	0.986
303.15 K, x1 = 0.4978	794.29	–	1.086
303.15 K, x1 = 0.6044	813.43	–	1.276
303.15 K, x1 = 0.6961	830.38	–	1.49
303.15 K, x1 = 0.8014	850.29	–	1.748
303.15 K, x1 = 0.8976	868.92	–	2.081
303.15 K, x1 = 1	889.26	–	2.718
308.15 K, x1 = 0.1031	722.96	1.4047	0.655
308.15 K, x1 = 0.2033	739.52	1.4121	0.739
308.15 K, x1 = 0.2973	755.44	1.4189	0.826
308.15 K, x1 = 0.3997	773.07	1.4269	0.917
308.15 K, x1 = 0.4978	790.46	1.4336	1.01
308.15 K, x1 = 0.6044	809.61	1.4425	1.182
308.15 K, x1 = 0.6961	826.58	1.4492	1.372
308.15 K, x1 = 0.8014	846.49	1.4572	1.606
308.15 K, x1 = 0.8976	865.13	1.4654	1.891
308.15 K, x1 = 1	885.46	1.4736	2.47
313.15 K, x1 = 0.1031	719.05	–	0.617
313.15 K, x1 = 0.2033	735.63	–	0.698
313.15 K, x1 = 0.2973	751.56	–	0.77
313.15 K, x1 = 0.3997	769.21	–	0.852
313.15 K, x1 = 0.4978	786.62	–	0.943
313.15 K, x1 = 0.6044	805.79	–	1.099
313.15 K, x1 = 0.6961	822.76	–	1.26
313.15 K, x1 = 0.8014	842.68	–	1.476
313.15 K, x1 = 0.8976	861.33	–	1.732
313.15 K, x1 = 1	881.65	–	2.252
318.15 K, x1 = 0.1031	715.12	1.4002	0.588
318.15 K, x1 = 0.2033	731.73	1.4077	0.662
318.15 K, x1 = 0.2973	747.68	1.4145	0.728
318.15 K, x1 = 0.3997	765.35	1.4223	0.802
318.15 K, x1 = 0.4978	782.77	1.4294	0.89
318.15 K, x1 = 0.6044	801.95	1.4379	1.033
318.15 K, x1 = 0.6961	818.94	1.4452	1.174
318.15 K, x1 = 0.8014	838.88	1.4533	1.374
318.15 K, x1 = 0.8976	857.52	1.4616	1.604
318.15 K, x1 = 1	877.85	1.4696	2.079
323.15 K, x1 = 0.1031	711.17	–	0.559
323.15 K, x1 = 0.2033	727.8	–	0.626
323.15 K, x1 = 0.2973	743.78	–	0.681
323.15 K, x1 = 0.3997	761.47	–	0.753
323.15 K, x1 = 0.4978	778.9	–	0.835
323.15 K, x1 = 0.6044	798.11	–	0.965
323.15 K, x1 = 0.6961	815.11	–	1.094
323.15 K, x1 = 0.8014	835.06	–	1.262
323.15 K, x1 = 0.8976	853.71	–	1.477
323.15 K, x1 = 1	874.05	–	1.912

C1CC[C@H]2CCCC[C@H]2C1 [cis-decahydronaphthalene] + CCCCCCCCCC
Conditions	mass density, [2] [kg/m3]	refractive index, [1]	viscosity, [2] [mPa·s]
293.15 K, x1 = 0.1006	744.89	–	1.006
293.15 K, x1 = 0.2055	759.79	–	1.09
293.15 K, x1 = 0.3009	773.95	–	1.197
293.15 K, x1 = 0.3965	788.64	–	1.366
293.15 K, x1 = 0.508	806.55	–	1.481
293.15 K, x1 = 0.6026	822.35	–	1.669
293.15 K, x1 = 0.7012	839.6	–	1.954
293.15 K, x1 = 0.7763	853.24	–	2.163
293.15 K, x1 = 0.8985	876.48	–	2.647
293.15 K, x1 = 1	896.85	–	3.355
298.15 K, x1 = 0.1006	741.18	1.415	0.933
298.15 K, x1 = 0.2055	756.08	1.421	1.015
298.15 K, x1 = 0.3009	770.21	1.427	1.107
298.15 K, x1 = 0.3965	784.9	1.4326	1.26
298.15 K, x1 = 0.508	802.83	1.4403	1.361
298.15 K, x1 = 0.6026	818.62	1.4464	1.53
298.15 K, x1 = 0.7012	835.86	1.4539	1.781
298.15 K, x1 = 0.7763	849.49	1.4594	1.964
298.15 K, x1 = 0.8985	872.71	1.4688	2.39
298.15 K, x1 = 1	893.06	1.4776	3.011
303.15 K, x1 = 0.1006	737.4	–	0.868
303.15 K, x1 = 0.2055	752.31	–	0.939
303.15 K, x1 = 0.3009	766.45	–	1.022
303.15 K, x1 = 0.3965	781.15	–	1.162
303.15 K, x1 = 0.508	799.07	–	1.255
303.15 K, x1 = 0.6026	814.86	–	1.406
303.15 K, x1 = 0.7012	832.1	–	1.633
303.15 K, x1 = 0.7763	845.72	–	1.792
303.15 K, x1 = 0.8985	868.93	–	2.168
303.15 K, x1 = 1	889.26	–	2.718
308.15 K, x1 = 0.1006	733.61	1.4109	0.812
308.15 K, x1 = 0.2055	748.53	1.4167	0.876
308.15 K, x1 = 0.3009	762.68	1.4227	0.95
308.15 K, x1 = 0.3965	777.38	1.4284	1.076
308.15 K, x1 = 0.508	795.31	1.4358	1.162
308.15 K, x1 = 0.6026	811.1	1.4422	1.298
308.15 K, x1 = 0.7012	828.33	1.4496	1.503
308.15 K, x1 = 0.7763	841.96	1.455	1.644
308.15 K, x1 = 0.8985	865.15	1.4647	1.979
308.15 K, x1 = 1	885.46	1.4736	2.47
313.15 K, x1 = 0.1006	729.8	–	0.76
313.15 K, x1 = 0.2055	744.74	–	0.82
313.15 K, x1 = 0.3009	758.9	–	0.887
313.15 K, x1 = 0.3965	773.6	–	0.996
313.15 K, x1 = 0.508	791.54	–	1.079
313.15 K, x1 = 0.6026	807.33	–	1.204
313.15 K, x1 = 0.7012	824.56	–	1.389
313.15 K, x1 = 0.7763	838.18	–	1.517
313.15 K, x1 = 0.8985	861.37	–	1.811
313.15 K, x1 = 1	881.65	–	2.252
318.15 K, x1 = 0.1006	725.99	1.4065	0.715
318.15 K, x1 = 0.2055	740.94	1.4127	0.771
318.15 K, x1 = 0.3009	755.1	1.4188	0.832
318.15 K, x1 = 0.3965	769.81	1.4251	0.924
318.15 K, x1 = 0.508	787.76	1.4319	1.007
318.15 K, x1 = 0.6026	803.55	1.4384	1.12
318.15 K, x1 = 0.7012	820.78	1.4456	1.286
318.15 K, x1 = 0.7763	834.4	1.4515	1.401
318.15 K, x1 = 0.8985	857.58	1.4611	1.666
318.15 K, x1 = 1	877.85	1.4696	2.063
323.15 K, x1 = 0.1006	722.16	–	0.674
323.15 K, x1 = 0.2055	737.12	–	0.725
323.15 K, x1 = 0.3009	751.29	–	0.781
323.15 K, x1 = 0.3965	766.01	–	0.859
323.15 K, x1 = 0.508	783.96	–	0.941
323.15 K, x1 = 0.6026	799.76	–	1.045
323.15 K, x1 = 0.7012	816.99	–	1.193
323.15 K, x1 = 0.7763	830.61	–	1.299
323.15 K, x1 = 0.8985	853.78	–	1.539
323.15 K, x1 = 1	874.05	–	1.898
